In patent publication US9975854B2, “Benzomorphan analogs and use thereof” (Purdue Pharma L.P., priority 2014, dated 2018):

Legend:
μ-opioid receptor [1] = biological target: T1, μ-opioid receptor (Homo sapiens (Human), UniProt P35372); experiment: μ-opioid receptor [35S]GTPγS functional assay, HEK-293 or CHO cells; assay type: biochemical; conditions: HEK-293 or CHO cells; for EC50: read-out: GTPγS μ EC50; for Emax: relative to DAMGO
Summary of the method: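 Membranes from recombinant human μ-opioid receptor cells (HEK-293, CHO or U-2 OS) at 0.026 mg/mL with saponin, […] and 0.20 nM [35S]GTPγS in HEPES buffer pH 7.4, incubated 30 min at about 25 °C; bound radioactivity by filtration. EC50 from sigmoidal fit; Emax relative to DAMGO.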

κ-opioid receptor [2] = biological target: T2, κ-opioid receptor (Homo sapiens (Human), UniProt P41145); experiment: κ-opioid receptor radioligand dose-displacement binding assay ([3H]-U69,593); conditions: binding affinity, HEK-293 or CHO cells
Procedure: Membranes from recombinant HEK-293 cells, CHO or U-2 OS cells expressing the recombinant human κ opioid receptor (κ) were prepared by lysing cells in ice cold hypotonic buffer (2.5 mM MgCl2, 50 mM HEPES, pH 7.4) (10 mL/10 cm dish) followed by homogenization with a tissue grinder/Teflon pestle. Membranes from a cell line naturally expressing kappa opioid receptors can also be used. Membranes were collected by centrifugation at 30,000×g for 15 min at 4° C. and pellets were resuspended in hypotonic buffer to a final concentration of 1-3 mg/mL. Protein concentrations were determined using the BioRad protein assay reagent with bovine serum albumen as standard. Aliquots of κ receptor membranes were stored at −80° C.
Radioligand dose displacement assays used 0.4 nM [^3H]-U69,593 (GE Healthcare, Piscataway, N.J.; 40 Ci/mmole) with 15 μg membrane protein (recombinant K opioid receptor expressed in HEK 293 cells; in-house prep) in a final volume of 200 μl binding buffer (5% DMSO, 50 mM Trizma base, pH 7.4). Non-specific binding was determined in the presence of 10 μM unlabeled naloxone or U69,593. All reactions were performed in 96-well polypropylene plates for 1 hr at a temperature of about 25° C. Binding reactions were terminated by rapid filtration onto 96-well Unifilter GF/C filter plates (Perkin Elmer, Shelton, Conn.) presoaked in 0.5% polyethylenimine (Sigma). Harvesting was performed using a 96-well tissue harvester (Perkin Elmer, Shelton, Conn.) followed by five filtration washes with 200 μl ice-cold binding buffer. Filter plates were subsequently dried at 50° C. for 1-2 hours. Fifty μl/well scintillation cocktail (Perkin Elmer, Shelton, Conn.) was added and plates were counted in a Packard Top-Count for 1 min/well.
In TABLE 3, binding affinity of certain Compounds of the Invention to the ORL-1, μ-, and κ-opioid receptors was determined as described above in HEK-293 or CHO cells.

κ-opioid receptor [3] = biological target: T2, κ-opioid receptor; experiment: κ-opioid receptor [35S]GTPγS functional assay, U-2 OS cells; assay type: biochemical; conditions: for Emax: relative to U69,593
Procedure: (§1) Functional [^35S]GTPγS binding assays were conducted as follows. K opioid receptor membrane solution was prepared by sequentially adding final concentrations of 0.026 μg/μl κ membrane protein (in-house), 10 μg/mL saponin, 3 μM GDP and 0.20 nM [^35S]GTPγS to binding buffer (100 mM NaCl, 10 mM MgCl2, 20 mM HEPES, pH 7.4) on ice. The prepared membrane solution (190 μl/well) was transferred to 96-shallow well polypropylene plates containing 10 μl of 20× concentrated stock solutions of agonist prepared in DMSO. Plates were incubated for 30 min at a temperature of about 25° C. with shaking. Reactions were terminated by rapid filtration onto 96-well Unifilter GF/B filter plates (Perkin Elmer, Shelton, Conn.) using a 96-well tissue harvester (Packard) and followed by three filtration washes with 200 μl ice-cold binding buffer (10 mM NaH2PO4, 10 mM Na2HPO4, pH 7.4). Filter plates were subsequently dried at 50° C. for 2-3 hours. Fifty μl/well scintillation cocktail (Perkin Elmer, Shelton, Conn.) was added and plates were counted in a Packard Top-Count for 1 min/well.
κ GTP EC50 is the concentration of a compound providing 50% of the maximal response for the compound at a κ receptor.
κ GTP Emax (%) is the maximal effect elicited by a compound relative to the effect elicited by U69,593.
(§2) In TABLE 5, activity response of certain Compounds of the Invention to the μ- and κ-opioid receptors was determined as described above for functional assays using U-2 OS cells.

μ-opioid receptor [4] = biological target: T1, μ-opioid receptor; experiment: μ-opioid receptor [35S]GTPγS functional assay, U-2 OS cells; assay type: biochemical; conditions: for Emax: relative to DAMGO
Procedure: [^35S]GTPγS functional assays were conducted using freshly thawed μ-receptor membranes prepared in-house from a cell line expressing recombinant opioid receptor in a HEK-293, CHO or U-2 OS cell background, or purchased from a commercial source (Perkin Elmer, Shelton, Conn.; or DiscovRx, Fremont, Calif.). Assay reactions were prepared by sequentially adding the following reagents to binding buffer (100 mM NaCl, 10 mM MgCl2, 20 mM HEPES, pH 7.4) on ice (final concentrations indicated): membrane protein (0.026 mg/mL), saponin ([…]), GDP ([…]) and [^35S]GTPγS (0.20 nM; Perkin Elmer, Shelton, Conn.). The prepared membrane solution (190 μl/well) was transferred to 96-shallow well polypropylene plates containing 10 μl of 20× concentrated stock solutions of the agonist [D-Ala^2, N-methyl-Phe^4 Gly-ol^5]-enkephalin (DAMGO) prepared in dimethyl sulfoxide (DMSO). Plates were incubated for 30 min at about 25° C. with shaking. Reactions were terminated by rapid filtration onto 96-well Unifilter GF/B filter plates (Perkin Elmer, Shelton, Conn.) using a 96-well tissue harvester (Perkin Elmer, Shelton, Conn.) followed by three filtration washes with 200 μl of ice-cold wash buffer (10 mM NaH2PO4, 10 mM Na2HPO4, pH 7.4). Filter plates were subsequently dried at 50° C. for 2-3 hr. BetaScint scintillation cocktail (Perkin Elmer, Shelton, Conn.) was added (50 μl/well) and plates were counted using a Packard Top-Count for 1 min/well. Data were analyzed using the sigmoidal dose-response curve fitting functions in GraphPad PRISM v. 3.0, or an in-house function for non-linear, sigmoidal dose-response curve-fitting.
μ GTP EC50 is the concentration of a compound providing 50% of the maximal response for the compound at a μ-opioid receptor.
μ GTP Emax (%) is the maximal effect elicited by a compound relative to the effect elicited by DAMGO, a standard p agonist. Generally, the μ GTP Emax (%) value measures the efficacy of a compound to treat or prevent pain or other Conditions.
as §2

κ-opioid receptor [5] = biological target: T2, κ-opioid receptor; experiment: κ-opioid receptor [35S]GTPγS functional assay, HEK-293 or CHO cells; assay type: biochemical
Procedure: as §1
κ GTP EC50 is the concentration of a compound providing 50% of the maximal response for the compound at a κ receptor. […]
In TABLE 4, activity response of certain Compounds of the Invention to the μ- and κ-opioid receptors was determined as described above for functional assays using HEK-293 or CHO cells.

Row | SMILES | EC50 (μ-opioid receptor [1]) [nM] | Emax (μ-opioid receptor [1]) [%] | Ki (κ-opioid receptor [2]) [µM] | EC50 (κ-opioid receptor [3]) [nM] | Emax (κ-opioid receptor [3]) [%] | EC50 (μ-opioid receptor [4]) [nM] | Emax (μ-opioid receptor [4]) [%] | Ki (κ-opioid receptor [2]; bound given in uM) [µM] | EC50 (κ-opioid receptor [5]; bound given in uM) [µM] | Emax (κ-opioid receptor [5]; relative to U69,593) [%]
1 | CN1CC[C@@]2(C)c3cc(O)ccc3C[C@@H]1[C@@H]2N(C)CC1CCN(CC(C)(C)O)CC1 [Compound 97, (2R,6S,11R)-11-(((1-(2-hydroxy-2-methylpropyl)piperidin-4-yl)methyl)(methyl)amino)-3,6-dimethyl-1,2,3,4,5,6-hexahydro-2,6-methanobenzo[d]azocin-8-ol] | 22.6 ± 2.34 | 47 ± 1.53 | 0.00212 ± 0.00055 |  |  |  |  |  |  | 
2 | CN1CC[C@@]2(C)c3cc(O)ccc3C[C@@H]1[C@@H]2N(C)C(=O)CC(=O)Nc1ccc(F)cc1F [Compound 26, N^1-(2,4-difluorophenyl)-N^3—((2R,6S,11R)-8-hydroxy-3,6-dimethyl-1,2,3,4,5,6-hexahydro-2,6-methanobenzo[d]azocin-11-yl)-N^3-methylmalonamide] | 3.97 ± 0.25 | 76.7 ± 2.73 |  | 54.3 ± 9.45 | 81.7 ± 10.7 | 0.33 ± 0.025 | 107 ± 3.06 |  |  | 
3 | CN1CC[C@@]2(C)c3cc(O)ccc3C[C@@H]1[C@H]2NCCC1(O)CCCCC1 [Compound 12, (2R,6S,11S)-11-((2-(1-hydroxycyclohexyl)ethyl)amino)-3,6-dimethyl-1,2,3,4,5,6-hexahydro-2,6-methano-benzo[d]azocin-8-ol] | 223 ± 29.8 | 47.7 ± 4.84 |  | 137 ± 20.1 | 54 ± 5.92 | 33.6 ± 1.43 | 100 ± 1.67 |  |  | 
4 | CC(C)S(=O)(=O)N1CCC(CN(C)[C@H]2[C@H]3Cc4ccc(O)cc4[C@]2(C)CCN3C)CC1 [Compound 55, (2R,6S,11R)-11-(((1-(isopropylsulfonyl)piperidin-4-yl)methyl)(methyl)amino)-3,6-dimethyl-1,2,3,4,5,6-hexahydro-2,6-methanobenzo[d]azocin-8-ol] | 3.28 ± 0.39 | 52 ± 4.85 |  |  |  |  |  | > 20 |  | 
5 | CN1CC[C@@]2(C)c3cc(O)ccc3C[C@@H]1[C@@H]2N(C)CC(=O)Nc1nc2ccc(F)cc2s1 [Compound 40, N-(6-fluorobenzo[d]thiazol-2-yl)-2-(((2R,6S,11R)-8-hydroxy-3,6-dimethyl-1,2,3,4,5,6-hexahydro-2,6-methanobenzo[d]azocin-11-yl)(methyl)amino)acetamide] |  |  |  | 10900 ± 1410 | 45.2 ± 4.82 | 539 ± 62.8 | 18.7 ± 0.67 |  |  | 
6 | CN1CC[C@@]2(C)c3cc(O)ccc3C[C@@H]1[C@@H]2NCCc1ccc(S(C)(=O)=O)cc1 [Compound 10, (2R,6S,11R)-3,6-dimethyl-11-((4-(methylsulfonyl)phenethyl)amino)-1,2,3,4,5,6-hexahydro-2,6-methanobenzo[d]azocin-8-ol] | 225 ± 60.8 | 38.5 ± 2.33 | 0.301 ± 0.00979 |  |  |  |  |  | > 20 | 1
